These results are taken from US10124004B2, “Pyrido[3,4-d]pyrimidine derivative and pharmaceutically acceptable salt thereof” (Teijin Pharma Limited, priority 2015, dated 2018).

Structures are written as SMILES.

This assay deals with T1, CDK4/cyclin D3 (Homo sapiens, UniProt P11802).
T1 construct: purchased Carna Biosciences, Inc. QS S Assist CDK4/Cyclin D3_FP Kit
T1 sequence (P11802 whole entry): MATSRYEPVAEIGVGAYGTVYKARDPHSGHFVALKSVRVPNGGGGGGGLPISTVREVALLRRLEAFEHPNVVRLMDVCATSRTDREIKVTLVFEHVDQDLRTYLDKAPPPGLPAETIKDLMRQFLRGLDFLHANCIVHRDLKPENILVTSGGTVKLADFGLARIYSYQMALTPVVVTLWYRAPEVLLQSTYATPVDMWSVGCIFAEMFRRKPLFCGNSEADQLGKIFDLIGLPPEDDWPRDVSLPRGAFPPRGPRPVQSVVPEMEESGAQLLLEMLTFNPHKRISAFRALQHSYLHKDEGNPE
T1 sequence (P30281 whole entry partner): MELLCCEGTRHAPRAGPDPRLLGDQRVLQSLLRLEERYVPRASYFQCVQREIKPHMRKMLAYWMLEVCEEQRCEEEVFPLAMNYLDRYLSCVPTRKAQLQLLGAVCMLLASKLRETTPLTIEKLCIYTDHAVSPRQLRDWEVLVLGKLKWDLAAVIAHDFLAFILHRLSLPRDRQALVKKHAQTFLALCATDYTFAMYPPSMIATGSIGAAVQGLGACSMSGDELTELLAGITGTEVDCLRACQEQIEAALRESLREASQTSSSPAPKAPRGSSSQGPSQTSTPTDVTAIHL
In words: Human CDK4/cyclin D3 inhibitory activity (QS S Assist CDK4/Cyclin D3_FP Kit, IMAP fluorescence polarization). Conditions: Human CDK4/cyclin D3 inhibitory activity; read-out: CDK4 Activity symbol. Format: biochemical. The method, then:
Human CDK4/Cyclin D3 Inhibitory Activity
Each compound was analyzed for CDK4/cyclin D3 inhibitory activity with an assay kit (QS S Assist CDK4/Cyclin D3_FP Kit, available from Carna Biosciences, Inc.). This assay kit determines kinase activity on the basis of the IMAP technology by Molecular Devices. Specifically, the kinase activity is determined through quantification of a variation in fluorescent polarization caused by binding of a kinase-phosphorylated fluorescent substance to an IMAP-binding reagent.
Each solution was prepared with the 10× assay buffer attached to the kit or a separately prepared assay buffer having the same composition as the assay buffer attached to the kit. An assay buffer was prepared by 10-fold dilution of the 10× assay buffer with distilled water. The assay buffer contains 20 mM HEPES (pH 7.4), 0.01% Tween20, and 2 mM dithiothreitol. A test compound solution was prepared by dilution of the test compound with dimethyl sulfoxide (DMSO) to a concentration 100 times higher than the final concentration and then 25-fold dilution with the assay buffer to a concentration four times higher than the final concentration. An ATP/substrate/Metal solution was prepared by five-fold dilution of the 5×ATP/substrate/Metal solution attached to the kit with the assay buffer. An enzyme solution was prepared by dilution of the CDK4/cyclin D3 attached to the kit with the assay buffer to a concentration twice higher than the final concentration (final concentration of CDK4/cyclin D3:12.5 to 25 ng/well). A detection reagent was prepared by five-fold dilution of each of 5× IMAP-binding buffer A and 5×IMAP-binding buffer B with distilled water, mixing of IMAP-binding buffer A with IMAP-binding buffer B at a ratio of 85:15, and 400-fold dilution of the IMAP-binding reagent with the mixed buffer.
The test compound solution (5 μL/well) and the ATP/substrate/Metal solution (5 μL/well) were added to a 384-well plate, and the enzyme solution or the assay buffer (10 μL/well) was added to the plate (total amount of the reaction mixture: 20 μL/well) for initiation of enzymatic reaction. […] The reaction was performed at room temperature for 45 minutes, and the detection reagent (60 μL/well) was then added to the plate, followed by further reaction for 30 minutes at room temperature under light shielding conditions. Subsequently, fluorescent polarization was determined with a microplate reader at an excitation wavelength of 485 nm and an emission wavelength of 535 nm.
The percent inhibition of enzyme activity was calculated for each test compound (note: enzyme activity=100% in the case of addition of the enzyme solution and addition of DMSO instead of the test compound solution, whereas enzyme activity=0% in the case of addition of the assay buffer instead of the enzyme solution, and addition of DMSO instead of the test compound solution). The percent inhibition of enzyme activity was fitted to a dose-response curve, to determine a 50% inhibitory concentration against CDK4/cyclin D3.
In each table, “+++” corresponds to IC50<10 nM, “++” 10 nM≤IC50<100 nM, and “+” 100 nM≤IC50.
Consider `COC(C)c1cc2cnc(Nc3ccc(CN4CCNCC4)cn3)nc2c(NCC2CCCC(O)C2)n1` (stereo not shown) [Compound 402], for which the IC50 is under 10 nM.

Turning to `COC(C)c1cc2cnc(Nc3ccc(CN4CCNCC4)cn3)nc2c(NCC2CCC(=O)N2)n1` (stereo not shown) [Compound 403], the IC50 lay in the range of 10 to 100 nM.

Take `COC(C)c1cc2cnc(Nc3ccc(CN4CCNCC4)cn3)nc2c(NC(C)C2CCOC2)n1` (stereo not shown) [Compound 404]: the IC50 is under 10 nM.

Take `COC(C)c1cc2cnc(Nc3ccc(CN4CCNCC4)cn3)nc2c(NC2CCCN(C(C)=O)C2)n1` (stereo not shown) [Compound 405]: the IC50 lay within 10 to 100 nM.

In the case of `COC(C)c1cc2cnc(Nc3ccc(CN4CCNCC4)cn3)nc2c(NCC2CNC(=O)C2)n1` (stereo not shown) [Compound 406], the IC50 fell in the range of 10 to 100 nM.

Consider `COC(C)c1cc2cnc(Nc3ccc(CN4CCNCC4)cn3)nc2c(NC2CCCN(C)C2)n1` (stereo not shown) [Compound 407], for which the IC50 lay within 10 to 100 nM.

For `COC(C)c1cc2cnc(Nc3ccc(CN4CCNCC4)cn3)nc2c(NC[C@@H]2CCCO2)n1` (stereo partly shown) [Compound 408], the IC50 fell in the range of 10 to 100 nM.

For `COC(C)c1cc2cnc(Nc3ccc(CN4CCNCC4)cn3)nc2c(NC(C)C2CCCO2)n1` (stereo not shown) [Compound 409], the IC50 was under 10 nM.

Regarding `COC(C)c1cc2cnc(Nc3ccc(CN4CCNCC4)cn3)nc2c(NC2CCOC(C)(C)C2)n1` (stereo not shown) [Compound 410], the IC50 is under 10 nM.

Consider `COC(C)c1cc2cnc(Nc3ccc(CN4CCNCC4)cn3)nc2c(NC[C@H]2CCCO2)n1` (stereo partly shown) [Compound 411], for which the IC50 is under 10 nM.

Turning to `COC(C)c1cc2cnc(Nc3ccc(CN4CCNCC4)cn3)nc2c(Nc2cccc(C#N)c2)n1` (stereo not shown) [Compound 412], the IC50 was under 10 nM.

As for `COC(C)c1cc2cnc(Nc3ccc(CN4CCNCC4)cn3)nc2c(NC2(CO)CCCC2)n1` (stereo not shown) [Compound 413], the IC50 was under 10 nM.

Regarding `COC(C)c1cc2cnc(Nc3ccc(CN4CCNCC4)cn3)nc2c(NCCN2CCCC2=O)n1` (stereo not shown) [Compound 414], the IC50 was in the range of 10 to 100 nM.

In the case of `COC(C)c1cc2cnc(Nc3ccc(CN4CCNCC4)cn3)nc2c(NC2CN3CCC2CCOC3=O)n1` (stereo not shown) [Compound 415], the IC50 was under 10 nM.

Take `COC(C)c1cc2cnc(Nc3ccc(CN4CCNCC4)cn3)nc2c(NCc2ccc(=O)[nH]c2)n1` (stereo not shown) [Compound 416]: the IC50 was in the range of 10 to 100 nM.

For `COC(C)c1cc2cnc(Nc3ccc(CN4CCNCC4)cn3)nc2c(NC2CCCC2)n1` (stereo not shown) [Compound 417], the IC50 was under 10 nM.

Consider `COC(C)c1cc2cnc(Nc3ccc(CN4CCNCC4)cn3)nc2c(NCC(C)(C)C)n1` (stereo not shown) [Compound 418], for which the IC50 is under 10 nM.

In the case of `COC(C)c1cc2cnc(Nc3ccc(CN4CCNCC4)cn3)nc2c(NC2CNC(=O)C2)n1` (stereo not shown) [Compound 419], the IC50 lay in the range of 10 to 100 nM.

Take `COC(C)c1cc2cnc(Nc3ccc(CN4CCNCC4)cn3)nc2c(NC2(C)CCOCC2)n1` (stereo not shown) [Compound 420]: the IC50 is under 10 nM.

Turning to `COC(C)c1cc2cnc(Nc3ccc(CN4CCNCC4)cn3)nc2c(NC2CCC(=O)NC2)n1` (stereo not shown) [Compound 421], the IC50 fell in the range of 10 to 100 nM.

For `COC(C)c1cc2cnc(Nc3ccc(CN4CCNCC4)cn3)nc2c(NC2CCNC(=O)C2)n1` (stereo not shown) [Compound 422], the IC50 is 10 to 100 nM.

With `CCC(C)Nc1nc(C(C)OC)cc2cnc(Nc3ccc(CN4CCNCC4)cn3)nc12` (stereo not shown) [Compound 423], the IC50 was under 10 nM.

`O[C@H]1CC[C@@H](Nc2nc(C(F)F)cc3cnc(Nc4ccc(CN5CCNCC5)cn4)nc23)CC1` [Compound 424]: the IC50 was under 10 nM.

`O[C@H]1CC[C@@H](Nc2nc(C(F)F)cc3cnc(Nc4ccc(N5CCNCC5)nn4)nc23)CC1` [Compound 425]: the IC50 was under 10 nM.

In the case of `CN(C)CCOc1ccc(Nc2ncc3cc(C(F)F)nc(N[C@H]4CC[C@@H](O)CC4)c3n2)nc1` [Compound 426], the IC50 was under 10 nM.

Consider `COC(C)c1cc2cnc(Nc3ccc(CN4CCNCC4)cn3)nc2c(NC2CCC(O)C2)n1` (stereo not shown) [Compound 427], for which the IC50 was under 10 nM.

`COC(C)c1cc2cnc(Nc3ccc(CN4CCNCC4)cn3)nc2c(NCCC2CCOCC2)n1` (stereo not shown) [Compound 428]: the IC50 is under 10 nM.

With `COC(C)c1cc2cnc(Nc3ccc(CN4CCNCC4)cn3)nc2c(NCCC2CCCO2)n1` (stereo not shown) [Compound 429], the IC50 is under 10 nM.

As for `COC(C)c1cc2cnc(Nc3ccc(CN4CCNCC4)cn3)nc2c(NCCC2CCCCO2)n1` (stereo not shown) [Compound 430], the IC50 is under 10 nM.

Turning to `COC(C)c1cc2cnc(Nc3ccc(CN4CCNCC4)cn3)nc2c(NCCC2CCCOC2)n1` (stereo not shown) [Compound 431], the IC50 is under 10 nM.

Consider `COC(C)c1cc2cnc(Nc3ccc(CN4CCNCC4)cn3)nc2c(NC2(CO)CCOCC2)n1` (stereo not shown) [Compound 433], for which the IC50 is 10 to 100 nM.

For the compound `COC(C)c1cc2cnc(Nc3ccc(CN4CCNCC4)cn3)nc2c(NC2(CO)CCCCC2)n1` (stereo not shown) [Compound 434], the IC50 was under 10 nM.

As for `COC(C)c1cc2cnc(Nc3ccc(CN4CCNCC4)cn3)nc2c(NC[C@H]2CC[C@H](C(=O)O)CC2)n1` (stereo partly shown) [Compound 435], the IC50 is 10 to 100 nM.

For `COC(C)c1cc2cnc(Nc3ccc(CN4CCNCC4)cn3)nc2c(N[C@H]2CC[C@](C)(C(=O)O)CC2)n1` (stereo partly shown) [Compound 436], the IC50 was 10 to 100 nM.

Consider `COC(C)c1cc2cnc(Nc3ccc(CN4CCNCC4)cn3)nc2c(N[C@H]2CC[C@@](C)(C(=O)O)CC2)n1` (stereo partly shown) [Compound 437], for which the IC50 was at least 100 nM.

For the compound `CC(C)Nc1nc(C(F)F)cc2cnc(Nc3ccc(N4CCNC(C)(C)C4=O)cn3)nc12` [Compound 438], the IC50 is under 10 nM.

As to `CC1(C)NCCN(c2ccc(Nc3ncc4cc(C(F)F)nc(NC5CCOCC5)c4n3)nc2)C1=O` [Compound 439], the IC50 was 10 to 100 nM.

In the case of `CC(C)Nc1nc([C@@H](C)O)cc2cnc(Nc3ccc(N4CCNC(C)(C)C4=O)cn3)nc12` [Compound 440], the IC50 lay within 10 to 100 nM.

Regarding `C[C@@H](O)c1cc2cnc(Nc3ccc(N4CCNC(C)(C)C4=O)cn3)nc2c(NC2CCOCC2)n1` [Compound 441], the IC50 was at least 100 nM.

With `CC1(C)NCCN(c2ccc(Nc3ncc4cc(C(F)F)nc(N[C@H]5CC[C@H](C(=O)O)CC5)c4n3)nc2)C1=O` [Compound 442], the IC50 was at least 100 nM.

As to `CC1(C)NCCN(c2ccc(Nc3ncc4cc(C(F)F)nc(N[C@H]5CC[C@H](O)CC5)c4n3)nc2)C1=O` [Compound 443], the IC50 is 10 to 100 nM.

`CO[C@H](C)c1cc2cnc(Nc3ccc(N4CCNC(C)(C)C4=O)cn3)nc2c(NC(C)C)n1` [Compound 444]: the IC50 is at least 100 nM.

As for `COC(C)c1cc2cnc(Nc3ccc(CN4CCNCC4)cn3)nc2c(NC2CCCCCC2)n1` (stereo not shown) [Compound 445], the IC50 is under 10 nM.

Take `COC(C)c1cc2cnc(Nc3ccc(CN4CCNCC4)cn3)nc2c(Nc2ccc(F)cc2)n1` (stereo not shown) [Compound 446]: the IC50 is 10 to 100 nM.

Regarding `COC(C)c1cc2cnc(Nc3ccc(CN4CCNCC4)cn3)nc2c(Nc2cccc(F)c2)n1` (stereo not shown) [Compound 447], the IC50 lay in the range of 10 to 100 nM.

`COC(C)c1cc2cnc(Nc3ccc(CN4CCNCC4)cn3)nc2c(Nc2ccc(C(=O)O)cc2)n1` (stereo not shown) [Compound 448]: the IC50 was at least 100 nM.

Consider `COC(C)c1cc2cnc(Nc3ccc(CN4CCNCC4)cn3)nc2c(Nc2cccc(C(=O)O)c2)n1` (stereo not shown) [Compound 449], for which the IC50 was at least 100 nM.

For the compound `COc1ccc(Nc2nc(C(C)OC)cc3cnc(Nc4ccc(CN5CCNCC5)cn4)nc23)cc1` (stereo not shown) [Compound 450], the IC50 is under 10 nM.

As for `COc1cccc(Nc2nc(C(C)OC)cc3cnc(Nc4ccc(CN5CCNCC5)cn4)nc23)c1` (stereo not shown) [Compound 451], the IC50 was under 10 nM.

With `CNC1CCN(c2ccc(Nc3ncc4cc(C(C)OC)nc(NC(C)C)c4n3)nn2)CC1` (stereo not shown) [Compound 452], the IC50 is under 10 nM.

In the case of `COC(C)c1cc2cnc(Nc3ccc(N4CCCNCC4)cn3)nc2c(NC(C)C)n1` (stereo not shown) [Compound 453], the IC50 was under 10 nM.

`COC(C)c1cc2cnc(Nc3ccc(CN4CCNCC4)cn3)nc2c(NCC2(C)CC(O)CC(C)(C)C2)n1` (stereo not shown) [Compound 454]: the IC50 is under 10 nM.

With `COC(C)c1cc2cnc(Nc3ccc(CN4CCNCC4)cn3)nc2c(NC23CC4CC(CC(O)(C4)C2)C3)n1` (stereo not shown) [Compound 455], the IC50 was under 10 nM.

`COC(C)c1cc2cnc(Nc3ccc(OCC4(N)CC4)cn3)nc2c(NC(C)C)n1` (stereo not shown) [Compound 457]: the IC50 is under 10 nM.

`COC(C)c1cc2cnc(Nc3ccc(OCC(C)(C)N)cn3)nc2c(NC(C)C)n1` (stereo not shown) [Compound 458]: the IC50 was under 10 nM.
